Data as given in patent publication US11117900B2 (Vertex Pharmaceuticals Incorporated, priority 2012, dated 2021).
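Also: compound concentration needed to lower the IC50 of Cisplatin alone by a set fold.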

Each compound was assayed on HCT116 colorectal cancer cells (assay: Cisplatin sensitization assay (96 h MTS cell viability)). Conditions: Cisplatin sensitization value.
Assay type: cell-based
Procedure, shortened: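 HCT116 cells were dosed simultaneously with compound and cisplatin as a full matrix of 2-fold serial dilutions from 10 μM top final concentration. Incubation was 96 h at 37° C., 5% CO2, followed by 1 h with MTS reagent for the viability read-out. Sensitization values were binned into +++, ++ and + categories.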
`CN(C)CC(=O)N1CCN(c2c(F)cncc2NC(=O)c2c(N)nn3cc(F)cnc23)CC1` [I-N-153, 2-amino-N-(4-(4-(2-(dimethylamino)acetyl)piperazin-1-yl)-5-fluoropyridin-3-yl)-6-fluoropyrazolo[1,5-a]pyrimidine-3-carboxamide] was tested, and the “Cisplatin Sensitization Assay” value was “++ (Compounds with a Cisplatin sensitization value >0.02 μM but <0.2 μM are marked with “++.”)”. For `N#CCc1cnc2c(C(=O)Nc3cnccc3OCCCO)c(N)nn2c1` [I-O-40, 2-amino-6-(cyanomethyl)-N-(4-(3-hydroxypropoxy)pyridin-3-yl)pyrazolo[1,5-a]pyrimidine-3-carboxamide], the “Cisplatin Sensitization Assay” value was “++ (Compounds with a Cisplatin sensitization value >0.02 μM but <0.2 μM are marked with “++.”)”. In the case of `Nc1nn2cc(Cl)cnc2c1C(=O)Nc1cnccc1N1CCC(N2CCn3ccnc3C2)CC1` [I-N-102, 2-amino-6-chloro-N-(4-(4-(5,6-dihydroimidazo[1,2-a]pyrazin-7(8H)-yl)piperidin-1-yl)pyridin-3-yl)pyrazolo[1,5-a]pyrimidine-3-carboxamide], the “Cisplatin Sensitization Assay” value is reported as “++ (Compounds with a Cisplatin sensitization value >0.02 μM but <0.2 μM are marked with “++.”)”. `N#CCc1cnc2c(C(=O)Nc3cnccc3OC3CCOC3)c(N)nn2c1` (racemic) [I-O-37, (R,S)-2-amino-6-(cyanomethyl)-N-(4-((tetrahydrofuran-3-yl)oxy)pyridin-3-yl)pyrazolo[1,5-a]pyrimidine-3-carboxamide] was tested, and the “Cisplatin Sensitization Assay” value was “+++ (Compounds with a Cisplatin sensitization value of <0.02 μM are marked with “+++.”)”. `CN1CCC[C@@H]1C(=O)N1CCN(c2c(F)cncc2NC(=O)c2c(N)nn3cc(F)cnc23)CC1` [I-N-181, (R)-2-amino-6-fluoro-N-(5-fluoro-4-(4-(1-methylpyrrolidine-2-carbonyl)piperazin-1-yl)pyridin-3-yl)pyrazolo[1,5-a]pyrimidine-3-carboxamide] was tested, and the “Cisplatin Sensitization Assay” value was “+++ (Compounds with a Cisplatin sensitization value of <0.02 μM are marked with “+++.”)”. `CN1CCN(C(=O)C2(C#N)CCN(c3c(F)cncc3NC(=O)c3c(N)nn4cc(F)cnc34)CC2)CC1` [I-G-25, 2-amino-N-(4-(4-cyano-4-(4-methylpiperazine-1-carbonyl)piperidin-1-yl)-5-fluoropyridin-3-yl)-6-fluoropyrazolo[1,5-a]pyrimidine-3-carboxamide] was tested, and the “Cisplatin Sensitization Assay” value was “+++ (Compounds with a Cisplatin sensitization value of <0.02 μM are marked with “+++.”)”. For `Nc1nn2cc(F)cnc2c1C(=O)Nc1cncc(C2CC2)c1N1CCN([C@@H]2CCOC2)CC1` [I-N-119, (R)-2-amino-N-(5-cyclopropyl-4-(4-(tetrahydrofuran-3-yl)piperazin-1-yl)pyridin-3-yl)-6-fluoropyrazolo[1,5-a]pyrimidine-3-carboxamide], the “Cisplatin Sensitization Assay” value was “++ (Compounds with a Cisplatin sensitization value >0.02 μM but <0.2 μM are marked with “++.”)”. In the case of `N#CCc1cnc2c(C(=O)Nc3cnccc3N3CCCC3)c(N)nn2c1` [I-N-77, 2-amino-6-(cyanomethyl)-N-(4-(pyrrolidin-1-yl)pyridin-3-yl)pyrazolo[1,5-a]pyrimidine-3-carboxamide], the “Cisplatin Sensitization Assay” value is reported as “+ (Compounds with a Cisplatin sensitization value >0.2 μM but <5 μM are marked with “+.”)”. For `CC(C)(O)C1CCN(c2ccncc2NC(=O)c2c(N)nn3cc(Cl)cnc23)CC1` [I-N-69, 2-amino-6-chloro-N-(4-(4-(2-hydroxypropan-2-yl)piperidin-1-yl)pyridin-3-yl)pyrazolo[1,5-a]pyrimidine-3-carboxamide], the “Cisplatin Sensitization Assay” value was “+++ (Compounds with a Cisplatin sensitization value of <0.02 μM are marked with “+++.”)”. For `CS(=O)(=O)C1CCN(c2ccncc2NC(=O)c2c(N)nn3cc(F)cnc23)CC1` [I-N-190, 2-amino-6-fluoro-N-(4-(4-(methylsulfonyl)piperidin-1-yl)pyridin-3-yl)pyrazolo[1,5-a]pyrimidine-3-carboxamide], the “Cisplatin Sensitization Assay” value was “+++ (Compounds with a Cisplatin sensitization value of <0.02 μM are marked with “+++.”)”. In the case of `Nc1nn2cc(F)cnc2c1C(=O)Nc1cncc(F)c1N1CCN(C(=O)C2CCN(C3COC3)CC2)CC1` [I-N-211, 2-amino-6-fluoro-N-(5-fluoro-4-(4-(1-(oxetan-3-yl)piperidine-4-carbonyl)piperazin-1-yl)pyridin-3-yl)pyrazolo[1,5-a]pyrimidine-3-carboxamide], the “Cisplatin Sensitization Assay” value is reported as “++ (Compounds with a Cisplatin sensitization value >0.02 μM but <0.2 μM are marked with “++.”)”. With `Nc1nn2cc(F)cnc2c1C(=O)Nc1cnccc1N1CC(=O)N2CCCC2C1` (centres unmarked) [I-N-222, 2-amino-6-fluoro-N-(4-(4-oxohexahydropyrrolo[1,2-a]pyrazin-2(1H)-yl)pyridin-3-yl)pyrazolo[1,5-a]pyrimidine-3-carboxamide] the “Cisplatin Sensitization Assay” value was “++ (Compounds with a Cisplatin sensitization value >0.02 μM but <0.2 μM are marked with “++.”)”. `Nc1nn2cc(F)cnc2c1C(=O)Nc1cncc(F)c1N1CCC2(CC1)COC2` [I-N-239, 2-amino-6-fluoro-N-(5-fluoro-4-(2-oxa-7-azaspiro[3.5]nonan-7-yl)pyridin-3-yl)pyrazolo[1,5-a]pyrimidine-3-carboxamide] was tested, and the “Cisplatin Sensitization Assay” value was “+++ (Compounds with a Cisplatin sensitization value of <0.02 μM are marked with “+++.”)”. `COCC1CCN(c2ccncc2NC(=O)c2c(N)nn3cc(F)cnc23)CC1` [I-N-282, 2-amino-6-fluoro-N-(4-(4-(methoxymethyl)piperidin-1-yl)pyridin-3-yl)pyrazolo[1,5-a]pyrimidine-3-carboxamide] was tested, and the “Cisplatin Sensitization Assay” value was “+++ (Compounds with a Cisplatin sensitization value of <0.02 μM are marked with “+++.”)”. In the case of `Nc1nn2cc(F)cnc2c1C(=O)Nc1cnccc1N1CCC(C(=O)N2CC(F)(F)C2)CC1` [I-G-80, 2-amino-N-(4-(4-(3,3-difluoroazetidine-1-carbonyl)piperidin-1-yl)pyridin-3-yl)-6-fluoropyrazolo[1,5-a]pyrimidine-3-carboxamide], the “Cisplatin Sensitization Assay” value is reported as “+++ (Compounds with a Cisplatin sensitization value of <0.02 μM are marked with “+++.”)”. `N#CCc1cnc2c(C(=O)Nc3cnccc3N3CCCCC3)c(N)nn2c1` [I-N-84, 2-amino-6-(cyanomethyl)-N-(4-(piperidin-1-yl)pyridin-3-yl)pyrazolo[1,5-a]pyrimidine-3-carboxamide] was tested, and the “Cisplatin Sensitization Assay” value was “+++ (Compounds with a Cisplatin sensitization value of <0.02 μM are marked with “+++.”)”. `CN1CCC[C@H]1C(=O)N1CCN(c2c(F)cncc2NC(=O)c2c(N)nn3cc(F)cnc23)CC1` [I-N-157, (S)-2-amino-6-fluoro-N-(5-fluoro-4-(4-(1-methylpyrrolidine-2-carbonyl)piperazin-1-yl)pyridin-3-yl)pyrazolo[1,5-a]pyrimidine-3-carboxamide] was tested, and the “Cisplatin Sensitization Assay” value was “++ (Compounds with a Cisplatin sensitization value >0.02 μM but <0.2 μM are marked with “++.”)”. `Nc1nn2cc(Cl)cnc2c1C(=O)Nc1cnccc1OC1CC2(CNC2)C1` [I-O-72, N-(4-(2-azaspiro[3.3]heptan-6-yloxy)pyridin-3-yl)-2-amino-6-chloropyrazolo[1,5-a]pyrimidine-3-carboxamide] was tested, and the “Cisplatin Sensitization Assay” value was “+ (Compounds with a Cisplatin sensitization value >0.2 μM but <5 μM are marked with “+.”)”. With `Nc1nn2cc(F)cnc2c1C(=O)Nc1cnccc1N1CCN2CCOC[C@H]2C1` [I-N-116, (R)-2-amino-6-fluoro-N-(4-(hexahydropyrazino[2,1-c][1,4]oxazin-8(1H)-yl)pyridin-3-yl)pyrazolo[1,5-a]pyrimidine-3-carboxamide] the “Cisplatin Sensitization Assay” value was “++ (Compounds with a Cisplatin sensitization value >0.02 μM but <0.2 μM are marked with “++.”)”. With `Nc1nn2cc(F)cnc2c1C(=O)Nc1cncc(F)c1N1CCC(C(=O)N2CC3CCC(C2)N3)CC1` [I-G-44, N-(4-(4-(3,8-diazabicyclo[3.2.1]octane-3-carbonyl)piperidin-1-yl)-5-fluoropyridin-3-yl)-2-amino-6-fluoropyrazolo[1,5-a]pyrimidine-3-carboxamide] the “Cisplatin Sensitization Assay” value was “+++ (Compounds with a Cisplatin sensitization value of <0.02 μM are marked with “+++.”)”. With `CN(C)C(=O)C1CCCN(c2ccncc2NC(=O)c2c(N)nn3cc(F)cnc23)C1` (centres unmarked) [I-N-290, 2-amino-N-(4-(3-(dimethylcarbamoyl)piperidin-1-yl)pyridin-3-yl)-6-fluoropyrazolo[1,5-a]pyrimidine-3-carboxamide] the “Cisplatin Sensitization Assay” value was “++ (Compounds with a Cisplatin sensitization value >0.02 μM but <0.2 μM are marked with “++.”)”. In the case of `CN1CC2(CCN(c3ccncc3NC(=O)c3c(N)nn4cc(F)cnc34)CC2)CC1=O` [I-N-236, 2-amino-6-fluoro-N-(4-(2-methyl-3-oxo-2,8-diazaspiro[4.5]decan-8-yl)pyridin-3-yl)pyrazolo[1,5-a]pyrimidine-3-carboxamide], the “Cisplatin Sensitization Assay” value is reported as “+++ (Compounds with a Cisplatin sensitization value of <0.02 μM are marked with “+++.”)”. In the case of `Nc1nn2cc(F)cnc2c1C(=O)Nc1cnccc1-c1ccc(C(=O)N2CCN(C3COC3)CC2)nc1` [I-C-52, 2-amino-6-fluoro-N-(6-(4-(oxetan-3-yl)piperazine-1-carbonyl)-[3,4′-bipyridin]-3′-yl)pyrazolo[1,5-a]pyrimidine-3-carboxamide], the “Cisplatin Sensitization Assay” value is reported as “++ (Compounds with a Cisplatin sensitization value >0.02 μM but <0.2 μM are marked with “++.”)”. In the case of `Nc1nn2cc(F)cnc2c1C(=O)Nc1cnccc1N1CCN2C(=O)CC[C@H]2C1` [I-N-217, (S)-2-amino-6-fluoro-N-(4-(6-oxohexahydropyrrolo[1,2-a]pyrazin-2(1H)-yl)pyridin-3-yl)pyrazolo[1,5-a]pyrimidine-3-carboxamide], the “Cisplatin Sensitization Assay” value is reported as “++ (Compounds with a Cisplatin sensitization value >0.02 μM but <0.2 μM are marked with “++.”)”. With `Cn1cncc1-c1c(F)cncc1NC(=O)c1c(N)nn2cc(F)cnc12` [I-C-79, 2-amino-6-fluoro-N-(5-fluoro-4-(1-methyl-1H-imidazol-5-yl)pyridin-3-yl)pyrazolo[1,5-a]pyrimidine-3-carboxamide] the “Cisplatin Sensitization Assay” value was “+++ (Compounds with a Cisplatin sensitization value of <0.02 μM are marked with “+++.”)”. For `COC(=O)C1CCN(c2ccncc2NC(=O)c2c(N)nn3cc(Cl)cnc23)CC1` [I-N-74, methyl-1-(3-(2-amino-6-chloropyrazolo[1,5-a]pyrimidine-3-carboxamido)pyridin-4-yl)piperidine-4-carboxylate], the “Cisplatin Sensitization Assay” value was “+++ (Compounds with a Cisplatin sensitization value of <0.02 μM are marked with “+++.”)”.
